Experiments:
[1] = target: T1, CD95/PLCγ1 interaction (SH3-PLCg1/CID-CD95) (Homo sapiens, UniProt P19174); experiment: Renilla luciferase protein-fragment complementation assay (PCA), SH3-PLCγ1-F1 / CID-CD95-F2; assay type: cell-based; conditions: luminescence; for IC50: HEK293T cells, exposed 4 h
T1 construct: SH3—PLCγ1-F1 or DD-FADD-F1 (inset) was co-transfected into HEK293T cells; expressed in transfected cells; host or cells: HEK293T
T1 sequence (P19174 791-851): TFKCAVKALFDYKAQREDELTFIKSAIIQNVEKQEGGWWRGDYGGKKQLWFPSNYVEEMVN
Protocol: (§1) A. SH3—PLCγ1-F1 or DD-FADD-F1 (inset) was co-transfected into HEK293T cells along with whole CID-CD95-F2 or DD-CD95-F2 (inset). After 24 h, cells were exposed for 4 h to different compounds according to the invention at different concentrations and luminescence was assessed. The tested compounds were the compounds number 2, 3, 4, 5, 6, 7, 10, 11, 13 and 14.
(§2) F1 corresponds to the N-terminal domain of Renilla luciferase enzyme split into two fragments (F1 and F2, F2 being the C-terminal domain—see Stefan, E. et al. Proc Natl Acad Sci USA 104, 16916-21 (2007)). These F1 and F2 domains were co-expressed in HEK cells, whereupon the interaction between CD95-CID and PLCγ1, or CD95-DD and DD-FADD, allowed protein refolding and subsequent recovery of Renilla luciferase activity.
(§3) CID corresponds to amino acids 175 to 210 of CD95; DD corresponds to amino acids 210 to 303 of CD95.
(§4) Renilla luciferase-based protein-fragment complementation assay (PCA): HEK293T cells were electroporated with 10 μg DNA using a BTM-830 electroporation generator (BTX Instrument Division, Harvard Apparatus). Transfected cells were cultured for 24 h prior to PCA analyses as previously described (Poissonnier, A. et al., Immunity. 2016, 45, 209-223). Briefly, transfected cells (10^6) were washed and resuspended in 100 μL PBS and placed in OptiPlate-96 plates (Perkin-Elmer, Waltham, Mass., USA). Coelenterazine-h (5 μM, Sigma-Aldrich) was added to each well and Renilla luciferase activity was monitored for the first 10 seconds using Infinite200Pro (Tecan, Männedorf, Switzerland).

[2] = target: T2, CD95/FADD interaction (DD-FADD/DD-CD95) (Homo sapiens, UniProt P25445+Q13158); experiment: Renilla luciferase protein-fragment complementation assay (PCA), DD-FADD-F1 / DD-CD95-F2; assay type: cell-based; conditions: luminescence
T2 construct: DD corresponds to amino acids 210 to 303 of CD95; expressed in transfected cells; host or cells: HEK293T
T2 sequence (P25445 226-319 limits assumed): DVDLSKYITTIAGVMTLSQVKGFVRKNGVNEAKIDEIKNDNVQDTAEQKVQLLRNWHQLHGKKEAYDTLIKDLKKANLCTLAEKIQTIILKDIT
T2 sequence (Q13158 97-181 limits assumed): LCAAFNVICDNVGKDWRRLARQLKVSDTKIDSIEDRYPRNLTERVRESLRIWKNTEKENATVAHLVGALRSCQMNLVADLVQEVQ
Protocol: as §1, §2, §3, §4

[3] = test system: CD95-mediated Ca2+ response in Th17 cells; experiment: CD95-mediated Ca2+ response in Th17 cells (FIG. 5); assay type: cell-based, human; conditions: 1 μM, 1 h pre-incubation, cl-CD95L 100 ng/mL
Protocol: All cells were purchased from ATCC (Molsheim Cedex, France). The T cell lines H9 and CEM were cultured in RPMI supplemented with 8% heat-inactivated FCS (v/v) and 2 mM L-glutamine at 37° C./5% CO2. HEK293T cells were cultured at 37° C./5% CO2 in DMEM supplemented with 8% heat-inactivated FCS and 2 mM L-glutamine. PBMCs were isolated from buffy-coat by density gradient centrifugation on lymphocyte separation medium (Eurobio, Les Ulis, France). Th17 cells (CD4+CCR6+CXCR3−) were sorted from PBMCs using a Th17 Enrichment kit (StemCell Technologies, Grenoble, France). Human umbilical vein endothelial cells (HUVEC) were grown in Endothelial Growth Medium (EGM) supplemented with 2% FCS and EGM-2 Bullet Kit (Lonza, Levallois-Perret, France).
Th17 cells were pre-incubated for 1 h with TAT-control, minCID, or compound 13 (each at 1 μM), and then stimulated with cl-CD95L (100 ng/mL). [Ca^2+]CYT was assessed in Fluo2 LR-AM (2 μM)-loaded cells.

IC50 [1] [µM] | IC50 ([2]; HEK293T cells, exposed 4 h) [µM] | Molecule | also measured
196 | 213 | N=C(N)NCCCCC(=O)N(CCNC(=O)C(Cc1cnc[nH]1)N(CCNC(=O)C(CCCNC(=N)N)N(CCN)C(=O)CCS)C(=O)CCc1ccc(O)cc1)C(CCCCN)C(N)=O (centres unmarked) [Compound 5] | –
655 | – | N=C(N)NCCCC(C(=O)NCCN(C(=O)CCCCCN)C(Cc1cnc[nH]1)C(=O)NCCN(C(=O)CCc1ccc(O)cc1)C(CCCCN)C(N)=O)N(CCN)C(=O)CCS (centres unmarked) [Compound 26] | –
60.9 | 164 | CCC(=O)N(CCN)C(CCCNC(=N)N)C(=O)NCCN(C(=O)CCCCCN)C(Cc1cnc[nH]1)C(=O)NCCN(C(=O)CCCCNC(=N)N)C(CCCCN)C(N)=O (centres unmarked) [Compound 15] | –
85.5 | 173 | N=C(N)NCCCCC(=O)N(CCNC(=O)C(Cc1cnc[nH]1)N(CCNC(=O)C(Cc1c[nH]c2ccccc12)N(CCN)C(=O)CCS)C(=O)CCCCCN)C(CCCCN)C(N)=O (centres unmarked) [Compound 31] | –
203 | 245 | N=C(N)NCCCCC(=O)N(CCNC(=O)C(Cc1cnc[nH]1)N(CCNC(=O)C(CCCNC(=N)N)N(CCN)C(=O)CCS)C(=O)CCC1CNc2ccccc21)C(CCCCN)C(N)=O (centres unmarked) [Compound 4] | –
– | – | minCID: minimum domain of CID required for interaction with PLCγ1; amino acids 182-188 (TCRKHRK) (SEQ ID NO: 1) of human CD95; positive control (minCID corresponding to amino acids 182-188 of human CD95; listed as Homo sapiens) [reference compound] | disruption of the CD95/PLCγ1 interaction ([1]; HEK cells, 4 h, FIGS. 1A, 1B, 1C): disrupt the CD95/PLCγ1 interaction; effect on the CD95/FADD interaction ([2]; HEK cells, 4 h, FIGS. 1A, 1B, 1C (inset)): without affecting the CD95/FADD interaction; CD95-mediated Ca2+ response in Th17 cells [3]: inhibited
229 | 319 | CC(O)CC(=O)N(CCN)C(CS)C(=O)NCCN(C(=O)CCCCNC(=N)N)C(CCCCN)C(=O)NCCN(C(=O)CCc1c[nH]cn1)C(CCCNC(=N)N)C(=O)NCCNC(=O)CCCCCN (centres unmarked) [Compound 12] | –
356 | 277 | CC(O)C(N)C(=O)NCCN(C(=O)CCS)C(CCCNC(=N)N)C(=O)NCCN(C(=O)CCc1c[nH]c2ccccc12)C(Cc1c[nH]cn1)C(=O)NCCN(C(=O)CCCCNC(=N)N)C(CCCCN)C(N)=O (centres unmarked) [Compound 6] | –
856 | – | N=C(N)NCCCC(C(=O)NCCN(C(=O)CCCCCN)C(Cc1cnc[nH]1)C(=O)NCCN(C(=O)CCc1ccc(N)cc1)C(CCCCN)C(N)=O)N(CCN)C(=O)CCS (centres unmarked) [Compound 27] | –
343 | 2650 | N=C(N)NCCCC(C(=O)NCCN(C(=O)CCCCCN)C(Cc1cnc[nH]1)C(=O)NCCN(C(=O)CCc1c[nH]c2ccccc12)C(CCCCN)C(N)=O)N(CCN)C(=O)CCS (centres unmarked) [Compound 28] | –
75.2 | 3800 | N=C(N)NCCCCC(=O)N(CCNC(=O)C(Cc1cnc[nH]1)N(CCNC(=O)C(CCCNC(=N)N)N(CCN)C(=O)CCS)C(=O)CCCCCN)C(CCCCN)C(N)=O (centres unmarked) [Compound 14] | –
77.2 | – | CC(O)C(N)C(=O)NCCN(C(=O)CCS)C(CCCNC(=N)N)C(=O)NCCN(C(=O)CCCCCN)C(Cc1cnc[nH]1)C(=O)NCCN(C(=O)CCCCNC(=N)N)C(CCCCN)C(N)=O (centres unmarked) [Compound 13] | IC50 DD-FADD/DD-CD95 ([2]; HEK293T cells, exposed 4 h): ns
34.7 | 33.2 | CCCCCCCCCCCCCCCCCC(=O)N(CCN)C(CCCNC(=N)N)C(=O)NCCN(C(=O)CCCCCN)C(Cc1cnc[nH]1)C(=O)NCCN(C(=O)CCCCNC(=N)N)C(CCCCN)C(N)=O (centres unmarked) [Compound 1] | –
400 | 448 | N=C(N)NCCCCC(=O)N(CCNC(=O)C(N)CS)C(CCCCN)C(=O)NCCN(C(=O)CCc1c[nH]cn1)C(CCCNC(=N)N)C(=O)NCCNC(=O)CCCCCN (centres unmarked) [Compound 10] | –
343 | 720 | N=C(N)NCCCCC(=O)N(CCNC(=O)C(Cc1cnc[nH]1)N(CCNC(=O)C(CCCNC(=N)N)N(CCN)C(=O)CCC(N)=O)C(=O)CCCCCN)C(CCCCN)C(N)=O (centres unmarked) [Compound 17] | –
79 | 3930 | N=C(N)NCCCCC(=O)N(CCNC(=O)C(Cc1cnc[nH]1)N(CCNC(=O)C(CCCNC(=N)N)N(CCN)C(=O)CCO)C(=O)CCCCCN)C(CCCCN)C(N)=O (centres unmarked) [Compound 16] | –
907 | 4250 | N=C(N)NCCCCC(=O)N(CCNC(=O)C(Cc1cnc[nH]1)N(CCNC(=O)C(Cc1cccnc1)N(CCN)C(=O)CCS)C(=O)CCCCCN)C(CCCCN)C(N)=O (centres unmarked) [Compound 30] | –
315 | 311 | N=C(N)NCCCCC(=O)N(CCNC(=O)C(Cc1cnc[nH]1)N(CCNC(=O)C(CCCNC(=N)N)N(CCN)C(=O)CCS)C(=O)CCCCCC(N)=O)C(CCCCN)C(N)=O (centres unmarked) [Compound 2] | –
185 | 246 | N=C(N)NCCCCC(=O)N(CCNC(=O)C(Cc1cnc[nH]1)N(CCNC(=O)C(CCCNC(=N)N)N(CCN)C(=O)CCS)C(=O)CCc1c[nH]c2ccccc12)C(CCCCN)C(N)=O (centres unmarked) [Compound 3] | –
78.6 | 325 | CC(O)C(N)C(=O)NCCN(C(=O)CCS)C(Cc1c[nH]c2ccccc12)C(=O)NCCN(C(=O)CCCCCN)C(Cc1cnc[nH]1)C(=O)NCCN(C(=O)CCCCNC(=N)N)C(CCCCN)C(N)=O (centres unmarked) [Compound 7] | –
309 | 629 | CC(O)CC(=O)NC(CS)C(=O)NCCN(C(=O)CCCCNC(=N)N)C(CCCCN)C(=O)NCCN(C(=O)CCc1c[nH]cn1)C(CCCNC(=N)N)C(=O)NCCNC(=O)CCCCCN (centres unmarked) [Compound 11] | –
